Assay results: US20250230154A1, “COMPOUND HAVING SHP2 PROTEIN DEGRADING ACTIVITY, AND MEDICAL USES THEREOF” (UBIX THERAPEUTICS, INC., priority 2021, published 2025)

Biological target: T1, SHP2 protein (Homo sapiens, UniProt Q06124)
T1 sequence (Q06124 1-593): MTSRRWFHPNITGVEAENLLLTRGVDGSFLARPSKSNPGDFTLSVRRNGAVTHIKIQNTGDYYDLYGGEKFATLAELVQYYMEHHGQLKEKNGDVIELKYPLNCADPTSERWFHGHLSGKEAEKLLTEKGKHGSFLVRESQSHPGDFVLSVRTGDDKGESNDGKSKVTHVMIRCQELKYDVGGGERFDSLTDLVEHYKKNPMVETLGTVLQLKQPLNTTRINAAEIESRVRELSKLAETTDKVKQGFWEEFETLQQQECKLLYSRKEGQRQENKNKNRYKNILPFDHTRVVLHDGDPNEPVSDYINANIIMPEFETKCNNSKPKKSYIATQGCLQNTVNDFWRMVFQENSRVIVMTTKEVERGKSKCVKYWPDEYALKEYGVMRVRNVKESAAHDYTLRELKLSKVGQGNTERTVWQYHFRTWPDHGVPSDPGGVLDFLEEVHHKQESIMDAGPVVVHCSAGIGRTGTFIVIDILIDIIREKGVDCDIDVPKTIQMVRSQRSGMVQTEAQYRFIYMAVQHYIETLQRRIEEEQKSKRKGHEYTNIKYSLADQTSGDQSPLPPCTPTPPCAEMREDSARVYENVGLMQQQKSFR
Test: Measurement of SHP2 protein degradation in MV-4-11 cells (western blotting)
Format: cell-based
Set-up: endogenous in cells; host or cells: MV-4-11
Conditions: for SHP2 degradation (%) 10 nM / SHP2 degradation (%) 100 nM / SHP2 degradation (%) 1000 nM: MV-4-11 cells, 24 hours; for SHP2 protein degradation activity (in words): comment on Table 4
Experimental: Experimental Example 2: Measurement of SHP2 Protein Degradation in MV-4-11 Cells
MV-4-11 cells were treated with the synthesized Example compound, and the amount of SHP2 protein present in the cells was measured using western blotting detection. The protocol of the experiment conducted using MV-4-11 cells was as follows:
[Culture] MV-4-11 cells resuspended in IMDM MEDIUM (Hyclone, SH30228.01) containing 5% FBS (Hyclone, SV30207.02) and 1% Penicillin-streptomycin (Welgene, LS 202-02) were seeded at a density of 1×10^6/mL/well in a 12-well plate in an amount of 1 ml each.
[Compound treatment] The 12-well plate was treated as follows: Cells were treated with compounds at a final concentration of […] made by serial dilution of 10 mM stock with DMSO in 1/100 increments […]. After 24 hours, cells were harvested. For the negative control group, DMSO diluted 1/100 to the media (3 mL DMSO+297 mL media) was added.
[Harvest] Each well was collected in a 1.5 mL microtube by pipetting with a 1 mL pipette and centrifuged (500 g, 5 min, 4° C.). The supernatant was removed. It was washed with PBS, and then centrifuged again (500 g, 5 min, 4° C.). Thereafter, the supernatant was removed to prepare a pellet.
[Cell Lysis and Sample preparation] Lysis buffer was prepared as follows: […] of RIPA buffer (Biosesang, RC2038-050-00)+0.5 mM PMSF (SIGMA, P7626)+1× Protease/Phosphatase Inhibitor (Cell signaling, 5872S) per well was added and placed on ice for 30 minutes (vortexing at 0 and 30 minutes, respectively). After sonication process (10 seconds pulse, 30 seconds rest, 5 cycles, 70% amplification), centrifugation (15000 g, 15 min, 4° C.) was performed, and then only the supernatant was taken and transferred to a microtube. The sample was diluted ¼ with RIPA buffer in a 96-well plate, and mixed with A:B=50:1 of the BCA Protein Assay Kit (iNtRON, 21071). […] each of the mixture was left at 37° C. for 30 minutes, and cooled for 10 minutes. Then, absorbance was measured at 562 nm with the SYNERGY H1 microplate reader from BioTek. After making a sample by quantifying the protein with the measured value, boiling was performed at 70° C. for 10 minutes. At this time, the sample buffer used was a mixture of NuPAGE or Bolt 4× sample buffer (Invitrogen) and each 10× sample reducing agent according to the gel to be used, and RIPA buffer was used for protein dilution.
[Western blotting detection method] The same amount of sample was loaded on NuPAGE or Bolt Bis-tris 4-12% gradient gel and run (200 V, 35 minutes). It was transferred to 0.2 mm NC membrane with Trans-blot Turbo (BIO-RAD) (1.3 A constant, 25 V limit, 15 minutes). Blocking was performed at room temperature for 1 hour with Skim milk or Intercept Blocking Buffer (LI-COR, 927-60001):0.1% TBST=1:1. Anti-SHPTP2 Mouse (1:500 in 2% BSA/0.2% TBST, size: 70 kDa, Santacruz sc-7384) was incubated overnight at 4° C., and Anti-GAPDH Rabbit (1:2,000 in 2% BSA/0.2% TBST, size: 37 kDa, CST #2118) was incubated at room temperature for 1 hour 30 minutes or 3 hours. It was washed 3 times for 5 minutes each with 0.2% TBST washing buffer. Secondary antibody Anti-Rabbit IgG (1:5,000 in 2% BSA/0.2% TBST, CST), IRDye® 680RD Goat anti-Rabbit IgG Secondary Antibody (1:10,000 in 2% BSA/0.2% TBST, LI-COR 926-68071) were added and incubated for 45 minutes on a rocker at room temperature. It was washed 5 times for 5 minutes each with 0.2% TBST washing buffer and detected with LI-COR's Odyssey. At this time, SHPTP2 was detected using SuperSignal West Pico PLUS Chemiluminescent Substrate, and house-keeping genes were also detected.
In the results of Table 4 below, Compounds 1-7, 13-19, and 21-26 are results in KYSE-520 cells, and the others are results in MV-4-11 cells.

| Structure (SMILES) | SHP2 degradation (%) 10 nM [%] | SHP2 degradation (%) 100 nM [%] | SHP2 degradation (%) 1000 nM [%] | SHP2 protein degradation activity (in words) |
| --- | --- | --- | --- | --- |
| Cc1ncsc1-c1ccc(CNC(=O)[C@@H]2C[C@@H](O)CN2C(=O)[C@@H](NC(=O)C2(F)CC2)C(C)(C)C)c(OCCCC2CCN(C(=O)CC(=O)Nc3cccc(Sc4ncc(N5CCC(C)(CN)CC5)nc4N)c3Cl)CC2)c1 [Example 42, (2S,4R)—N-(2-(3-(1-(3-((3-((3-amino-5-(4-(aminomethyl)-4-methylpiperidin-1-yl)pyrazin-2-yl)thio)-2-chlorophenyl)amino)-3-oxopropanoyl)piperidin-4-yl)propoxy)-4-(4-methylthiazol-5-yl)benzyl)-1-((S)-2-(1-fluorocyclopropane-1-carboxamido)-3,3-dimethylbutanoyl)-4-hydroxypyrrolidine-2-carboxamide] | 73.5 | 95.0 |  |  |
| Cc1ncsc1-c1ccc(CNC(=O)[C@@H]2C[C@@H](O)CN2C(=O)[C@@H](NC(=O)C2(F)CC2)C(C)(C)C)c(OCCN2CCN(C(=O)CC(=O)Nc3cccc(Sc4ncc(N5CCC(C)(N)CC5)nc4N)c3Cl)CC2)c1 [Example 54, (2S,4R)—N-(2-(2-(4-(3-((3-((3-amino-5-(4-amino-4-methylpiperidin-1-yl)pyrazin-2-yl)thio)-2-chlorophenyl)amino)-3-oxopropanoyl)piperazin-1-yl)ethoxy)-4-(4-methylthiazol-5-yl)benzyl)-1-((S)-2-(1-fluorocyclopropane-1-carboxamido)-3,3-dimethylbutanoyl)-4-hydroxypyrrolidine-2-carboxamide] | 85.8 | 98.3 |  |  |
| Cc1ncsc1-c1ccc(CNC(=O)[C@@H]2C[C@@H](O)CN2C(=O)[C@@H](NC(=O)C2CC2)C(C)(C)C)c(OCCCN2CCN(CC(=O)Nc3cccc(Sc4cnc(N5CCC(C)(CN)CC5)cn4)c3Cl)C(=O)C2)c1 [Example 80, (2S,4R)—N-(2-(3-(4-(2-((3-((5-(4-(aminomethyl)-4-methylpiperidin-1-yl)pyrazin-2-yl)thio)-2-chlorophenyl)amino)-2-oxoethyl)-3-oxopiperazin-1-yl)propoxy)-4-(4-methylthiazol-5-yl)benzyl)-1-((S)-2-(cyclopropanecarboxamido)-3,3-dimethylbutanoyl)-4-hydroxypyrrolidine-2-carboxamide] | 83.1 | 98.2 |  |  |
| Cc1ncsc1-c1ccc(CNC(=O)[C@@H]2C[C@@H](O)CN2C(=O)[C@@H](NC(=O)C2(F)CC2)C(C)(C)C)c(OCCN2CCN(C(=O)CC(=O)Nc3cccc(Sc4cnc(N5CCC(C)(CN)CC5)cn4)c3Cl)[C@H](C)C2)c1 [Example 62, (2S,4R)—N-(2-(2-((R)-4-(3-((3-((5-(4-(aminomethyl)-4-methylpiperidin-1-yl)pyrazin-2-yl)thio)-2-chlorophenyl)amino)-3-oxopropanoyl)-3-methylpiperazin-1-yl)ethoxy)-4-(4-methylthiazol-5-yl)benzyl)-1-((S)-2-(1-fluorocyclopropane-1-carboxamido)-3,3-dimethylbutanoyl)-4-hydroxypyrrolidine-2-carboxamide] | 82.5 | 96 |  |  |

Other lines, results leading:

| SHP2 degradation (%) 10 nM [%] | SHP2 degradation (%) 100 nM [%] | SHP2 degradation (%) 1000 nM [%] | SHP2 protein degradation activity (in words) | Structure (SMILES) |
| --- | --- | --- | --- | --- |
| 76 | 97 | 97.5 |  | Cc1ncsc1-c1ccc(CNC(=O)[C@@H]2C[C@@H](O)CN2C(=O)[C@@H](NC(=O)C2(F)CC2)C(C)(C)C)c(OCC2CCN(C(=O)CC(=O)Nc3cccc(Sc4cnc(N5CCC(C)(CN)CC5)cn4)c3Cl)CC2)c1 [Example 31, (2S,4R)—N-(2-((1-(3-((3-((5-(4-(aminomethyl)-4-methylpiperidin-1-yl)pyrazin-2-yl)thio)-2-chlorophenyl)amino)-3-oxopropanoyl)piperidin-4-yl)methoxy)-4-(4-methylthiazol-5-yl)benzyl)-1-((S)-2-(1-fluorocyclopropane-1-carboxamido)-3,3-dimethylbutanoyl)-4-hydroxypyrrolidine-2-carboxamide] |
| 23.5 | 72 | 91.5 |  | Cc1ncsc1-c1ccc(CNC(=O)[C@@H]2C[C@@H](O)CN2C(=O)[C@@H](NC(=O)C2(F)CC2)C(C)(C)C)c(OCCC2CCN(C(=O)C(=O)Nc3cccc(Sc4cnc(N5CCC(C)(CN)CC5)cn4)c3Cl)CC2)c1 [Example 27, (2S,4R)—N-(2-(2-(1-(2-((3-((5-(4-(aminomethyl)-4-methylpiperidin-1-yl)pyrazin-2-yl)thio)-2-chlorophenyl)amino)-2-oxoacetyl)piperidin-4-yl)ethoxy)-4-(4-methylthiazol-5-yl)benzyl)-1-((S)-2-(1-fluorocyclopropane-1-carboxamido)-3,3-dimethylbutanoyl)-4-hydroxypyrrolidine-2-carboxamide] |
| −2.5 | 21.1 |  | somewhat decreased | Cc1ncsc1-c1ccc(CNC(=O)[C@@H]2C[C@@H](O)CN2C(=O)[C@@H](NC(=O)C2(F)CC2)C(C)(C)C)c(OCCC2CCN(C(=O)C3(C(=O)Nc4cccc(Sc5cnc(N6CCC(C)(CN)CC6)cn5)c4Cl)CC3)CC2)c1 [Example 47, (2S,4R)—N-(2-(2-(1-(1-((3-((5-(4-(aminomethyl)-4-methylpiperidin-1-yl)pyrazin-2-yl)thio)-2-chlorophenyl)carbamoyl)cyclopropane-1-carbonyl)piperidin-4-yl)ethoxy)-4-(4-methylthiazol-5-yl)benzyl)-1-((S)-2-(1-fluorocyclopropane-1-carboxamido)-3,3-dimethylbutanoyl)-4-hydroxypyrrolidine-2-carboxamide] |
| 4.0 | 10.6 |  | somewhat decreased | Cc1ncsc1-c1ccc(CNC(=O)[C@@H]2C[C@@H](O)CN2C(=O)[C@@H](NC(=O)C2(F)CC2)C(C)(C)C)c(OCCC2CCN(C(=O)C(C)(C)C(=O)Nc3cccc(Sc4cnc(N5CCC(C)(CN)CC5)cn4)c3Cl)CC2)c1 [Example 49, (2S,4R)—N-(2-(2-(1-(3-((3-((5-(4-(aminomethyl)-4-methylpiperidin-1-yl)pyrazin-2-yl)thio)-2-chlorophenyl)amino)-2,2-dimethyl-3-oxopropanoyl)piperidin-4-yl)ethoxy)-4-(4-methylthiazol-5-yl)benzyl)-1-((S)-2-(1-fluorocyclopropane-1-carboxamido)-3,3-dimethylbutanoyl)-4-hydroxypyrrolidine-2-carboxamide] |
